Laboratory results taken from US12091425B2 (AMGEN INC., priority 2016, dated 2024).

Columns and labels:
[1] = tested on: OPM-2 human multiple myeloma cell line; experiment: Cell Viability Assay (OPM-2 10 FBS); type: cell-based; conditions: OPM-2 cells, CellTiter-Glo
Outline: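 IC50 from 4-parameter logistic fit of CellTiter-Glo luminescence. 3000 cells/well, 10% FBS medium, serial compound dilutions, 16 h, 37 °C/5% CO2; read 25 min post-reagent.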

[2] = target: T1, Mcl-1/Bim interaction, recombinant human Mcl-1 (171-327) (Homo sapiens, UniProt Q07820); experiment: Cell free Mcl-1: Bim Affinity Assay (Mcl-1 HTRF); type: binding
T1 construct: made in house
T1 sequence (Q07820 171-327): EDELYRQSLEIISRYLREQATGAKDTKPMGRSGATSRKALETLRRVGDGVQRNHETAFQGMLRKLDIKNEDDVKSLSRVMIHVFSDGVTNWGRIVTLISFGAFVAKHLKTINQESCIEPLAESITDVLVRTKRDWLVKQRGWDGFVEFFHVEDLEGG
Outline: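 Biotin-Bim(51-76) peptide, TR-FRET readout, overnight incubation; IC50 from duplicate competition curves, 4-parameter fit.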

[3] = Homo sapiens, OPM-2, 16 h, 16 h incubation
[4] = TR-FRET, 0.1 nM Mcl-1 (171-327), 0.05 nM biotin-Bim (51-76)
[5] = Homo sapiens, OPM-2, 16 h, 16 h
[6] = cell free Mcl-1:Bim TR-FRET, recombinant human Mcl-1 (171-327)

Row | Compound | IC50 [2, 4] [nM] | IC50 [1, 5] [nM] | further results
1 | COCCN1[C@@H](C)C/C=C/[C@H](O)[C@@H]2CC[C@H]2CN2C[C@@]3(CCCc4cc(Cl)ccc43)COc3ccc(cc32)C(=O)NS1(=O)=O [Example 26, (1S,3′R,6′R,7′S,8′E,11′S)-6-chloro-7′-hydroxy-12′-(2-methoxyethyl)-11′-methyl-3,4-dihydro-2H,15′H-spiro[naphthalene-1,22′-[20]oxa[13]thia[1,12,14]triazatetracyclo[14.7.2.0^3,6.0^19,24]pentacosa[8,16,18,24]tetraen]-15′-one 13,13′-dioxide] | 0.205 | 312 | 
2 | C[C@H]1C/C=C/[C@H](O)[C@@H]2CC[C@H]2CN2C[C@@]3(CCCc4cc(Cl)ccc43)COc3ccc(cc32)C(=O)NS(=O)(=O)N1CCN1CCOCC1 [Example 66, (1S,3′R,6′R,7′S,8′E,11′S)-6-chloro-7′-hydroxy-11′-methyl-12′-(2-(4-morpholinyl)ethyl)-3,4-dihydro-2H,15′H-spiro[naphthalene-1,22′-[20]oxa[13]thia[1,12,14]triazatetracyclo[14.7.2.0^3,6.0^19,24]pentacosa[8,16,18,24]tetraen]-15′-one 13′,13′-dioxide] | 2.31 | 492 | 
3 | CNC(=O)CN1CC/C=C/[C@H](O)[C@@H]2CC[C@H]2CN2C[C@@]3(CCCc4cc(Cl)ccc43)COc3ccc(cc32)C(=O)NS1(=O)=O [Example 23, 2-((1S,3′R,6′R,7′S,8′E)-6-chloro-7′-hydroxy-13′,13′-dioxido-15′-oxo-3,4-dihydro-2H,12′H-spiro[naphthalene-1,22′-[20]oxa[13]thia[1,12,14]triazatetracyclo[14.7.2.0^3,6.0^19,24]pentacosa[8,16,18,24]tetraen]-12′-yl)-N-methylacetamide] | 0.314 | 3210 | 
4 | CC[C@@H]1CC/C=C/[C@H](O[C@H](C)C(=O)O)[C@@H]2CC[C@H]2CN2C[C@@]3(CCCc4cc(Cl)ccc43)COc3ccc(cc32)C(=O)NS1(=O)=O [Example 1005] | 0.157 |  | IC50 ([1]; 16 h incubation): 4110 nM
5 | C[C@H]1/C=C/[C@H](O)[C@@H]2CC[C@H]2CN2C[C@@]3(CCCc4cc(Cl)ccc43)COc3ccc(cc32)C(=O)NS(=O)(=O)CC1 (single isomer, unassigned) [Example 491] |  |  | IC50 ([1]; 16 h): 3480 nM; IC50 [2, 6]: 0.774 nM
6 | CC(C)(C)S(=O)(=O)CC[C@@H]1CC/C=C/[C@H](O)[C@@H]2CC[C@H]2CN2C[C@@]3(CCCc4cc(Cl)ccc43)COc3ccc(cc32)C(=O)NS1(=O)=O.CC(C)(C)S(=O)(=O)CC[C@H]1CC/C=C/[C@H](O)[C@@H]2CC[C@H]2CN2C[C@@]3(CCCc4cc(Cl)ccc43)COc3ccc(cc32)C(=O)NS1(=O)=O (mixture of isomers) [Example 154] | 0.259 |  | IC50 ([1]; 16 h): 7580 nM
7 | O=C1NS(=O)(=O)C2CC2CC=CC(O)C2CCC2CN2CC3(CCCc4cc(Cl)ccc43)COc3ccc1cc32 (single isomer, unassigned) [Example 793] |  |  | IC50 ([1]; 16 h): 536 nM; IC50 [2, 6]: 0.44 nM
8 | CO[C@H]1/C=C/C[C@H]2COCC[C@@H]2S(=O)(=O)NC(=O)c2ccc3c(c2)N(C[C@@H]2CC[C@H]21)C[C@@]1(CCCc2cc(Cl)ccc21)CO3 (single isomer, unassigned) [Example 321] | 2.29 |  | IC50 ([1]; 16 h): 2180 nM
9 | CO[C@H]1/C=C/C[C@H](CF)[C@@H](C)S(=O)(=O)NC(=O)c2ccc3c(c2)N(C[C@@H]2CC[C@H]21)C[C@@]1(CCCc2cc(Cl)ccc21)CO3 [Example 5, (1S,3′R,6′R,7′S,8′E,11′R,12′R)-6-chloro-11′-(fluoromethyl)-7′-methoxy-12′-methyl-3,4-dihydro-2H,15′H-spiro[naphthalene-1,22′-[20]oxa[13]thia[1,14]diazatetracyclo[14.7.2.0^3,6.0^19,24]pentacosa [8,16,18,24]tetraen]-15′-one 13′,13′-dioxide] | 0.54 | 329 | 
10 | CO[C@H]1/C=C/C[C@@H]2COCC[C@H]2S(=O)(=O)NC(=O)c2ccc3c(c2)N(C[C@@H]2CC[C@H]21)C[C@@]1(CCCc2cc(Cl)ccc21)CO3 (single isomer, unassigned) [Example 320] | 0.329 |  | IC50 ([1]; 16 h): 342 nM

The next lines start with results.

Row | IC50 [2, 4] [nM] | IC50 [1, 5] [nM] | Compound | further results
11 | 0.275 |  | C[C@@H]1CC/C=C/[C@H](OCc2ncccn2)[C@@H]2CC[C@H]2CN2C[C@@]3(CCCc4cc(Cl)ccc43)COc3ccc(cc32)C(=O)NS1(=O)=O [Example 956, (1S,3′R,6′R,7′S,8′E,12′R)-6-chloro-12′-methyl-7′-(2-pyrimidinylmethoxy)-3,4-dihydro-2H,15′H-spiro[naphthalene-1,22′-[20]oxa[13]thia[1,14]diazatetracyclo[14.7.2.0^3,6.0^19,24]pentacosa [8,16,18,24]tetraen]-15′-one 13′,13′-dioxide] | IC50 [1, 3]: 211 nM
12 | 3.89 | 5580 | O=C1NS(=O)(=O)[C@H]2CCCC[C@@H]2C/C=C/[C@H](O)[C@@H]2CC[C@H]2CN2C[C@@]3(CCCc4cc(Cl)ccc43)COc3ccc1cc32 (single isomer, unassigned) [Example 332] | 
13 | 0.211 | 128 | COCCOCCOCCOCCO[C@H]1/C=C/C[C@H](C)[C@@H](C)S(=O)(=O)NC(=O)c2ccc3c(c2)N(C[C@@H]2CC[C@H]21)C[C@@]1(CCCc2cc(Cl)ccc21)CO3 [Example 379, (1S,3′R,6′R,7′S,8′E,11′S,12′R)-6-chloro-11′,12′-dimethyl-7′-(3,6,9,12-tetraoxatridec-1-yloxy)-3,4-dihydro-2H,15′H-spiro[naphthalene-1,22′-[20]oxa[13]thia[1,14]diazatetracyclo[14.7.2.0^3,6.0^19,24]pentacosa[8,16,18,24]tetraen]-15′-one 13′,13′-dioxide] | 
14 | 0.589 |  | CCOC(=O)CO[C@H]1/C=C/[C@H](C)[C@H](C)[C@@H](C)S(=O)(=O)NC(=O)c2ccc3c(c2)N(C[C@@H]2CC[C@H]21)C[C@@]1(CCCc2cc(Cl)ccc21)CO3 [Example 1050, ethyl (((1S,3′R,6′R,7′S,8′E,10′S,11′S,12′R)-6-chloro-10′,11′,12′-trimethyl-13′,13′-dioxido-15′-oxo-3,4-dihydro-2H-spiro[naphthalene-1,22′-[20]oxa[13]thia[1,14]diazatetracyclo[14.7.2.0^3,6.0^19,24]pentacosa [8,16,18,24]tetraen]-7′-yl)oxy)acetate] | IC50 [1, 3]: 288 nM
15 | 0.218 | 566 | CO[C@H]1/C=C/[C@H](CCO)C[C@@H](C)S(=O)(=O)NC(=O)c2ccc3c(c2)N(C[C@@H]2CC[C@H]21)C[C@@]1(CCCc2cc(Cl)ccc21)CO3 [Example 202, (1S,3′R,6′R,7′S,8′E,10′R,12′R)-6-chloro-10′-(2-hydroxyethyl)-7′-methoxy-12′-methyl-3,4-dihydro-2H,15′H-spiro[naphthalene-1,22′-[20]oxa[13]thia[1,14]diazatetracyclo[14.7.2.0^3,6.0^19,24]pentacosa [8,16,18,24]tetraen]-15′-one 13′,13′-dioxide] | 
16 |  | 759 | CC(C)OC(=O)C[C@@H]1[C@@H](C)/C=C\C[C@H](O)[C@@H]2CC[C@H]2CN2C[C@@]3(CCCc4cc(Cl)ccc43)COc3ccc(cc32)C(=O)NS1(=O)=O [Example 569] | IC50 [2, 6]: 1.02 nM
17 | 1.07 |  | CC(=O)O[C@@H]1/C=C/C[C@H](C)[C@@H](C)S(=O)(=O)NC(=O)c2ccc3c(c2)N(C[C@@H]2CC[C@H]21)C[C@@]1(CCCc2cc(Cl)ccc21)CO3 [Example 1070, (1S,3′R,6′R,7′R,8′E,11′S,12′R)-6-chloro-11′,12′-dimethyl-13′,13′-dioxido-15′-oxo-3,4-dihydro-2H-spiro[naphthalene-1,22′-[20]oxa[13]thia[1,14]diazatetracyclo[14.7.2.0^3,6.0^19,24]pentacosa [8,16,18,24]tetraen]-7′-yl acetate] | IC50 [1, 3]: 1230 nM
18 |  | 362 | COCCCO[C@H]1/C=C/C[C@H](C)[C@@H](C)S(=O)(=O)NC(=O)c2ccc3c(c2)N(C[C@@H]2CC[C@H]21)C[C@@]1(CCCc2cc(Cl)ccc21)CO3 [Example 512, (1S,3′R,6′R,7′S,8′E,11′S,12′R)-6-chloro-7′-(3-methoxypropoxy)-11′,12′-dimethyl-3,4-dihydro-2H,15′H-spiro[naphthalene-1,22′-[20]oxa[13]thia[1,14]diazatetracyclo[14.7.2.0^3,6.0^19,24]pentacosa [8,16,18,24]tetraen]-15′-one 13′,13′-dioxide] | IC50 [2, 6]: 0.998 nM
19 |  | 891 | CC(C)(O)CC1CCC=CC(O)C2CCC2CN2CC3(CCCc4cc(Cl)ccc43)COc3ccc(cc32)C(=O)NS1(=O)=O (single isomer, unassigned) [Example 558] | IC50 [2, 6]: 0.284 nM
20 | 0.448 |  | CC[C@@H]1CC/C=C/[C@H](OCC(=O)NCCN2CCOCC2)[C@@H]2CC[C@H]2CN2C[C@@]3(CCCc4cc(Cl)ccc43)COc3ccc(cc32)C(=O)NS1(=O)=O [Example 1002, 2-(((1S,3′R,6′R,7′S,8′E,12′R)-6-chloro-12′-ethyl-13′,13′-dioxido-15′-oxo-3,4-dihydro-2H-spiro[naphthalene-1,22′-[20]oxa[13]thia[1,14]diazatetracyclo[14.7.2.0^3,6.0^19,24]pentacosa [8,16,18,24]tetraen]-7′-yl)oxy)-N-(2-(4-morpholinyl)ethyl)acetamide] | IC50 [1, 3]: 1220 nM
21 | 9.09 |  | C[C@H]1/C=C/[C@H](O)[C@@H]2CC[C@H]2CN2C[C@@]3(CCCc4cc(Cl)ccc43)COc3ccc(cc32)C(=O)NS(=O)(=O)[C@@H](C)C1 (single isomer, unassigned) [Example 1021] | IC50 ([1]; 16 h incubation): 27000 nM
22 | 0.396 |  | CC1CC(C)CS(=O)(=O)NC(=O)c2ccc3c(c2)N(CC2CCC2C(O)C1)CC1(CCCc2cc(Cl)ccc21)CO3 (single isomer, unassigned) [Example 272] | IC50 ([1]; 16 h): 1190 nM
